Reference: article PMC7083880 (Nature Communications, 2020)
Where “and” joins values, the source holds several entries; their conditions need not be identical. Equal entries are not always repeated.

Legend:
[1] = system: firefly luciferase (Fluc) gene with UGA nonsense codon at position 109 in HeLa cells; assay: Firefly luciferase readthrough assay, UGA PTC construct; type: cell-based, human; details: for Concentration of maximal efficacy, UGA readthrough (luciferase) / EC50: Fig. 1D; for Concentration of maximal efficacy, UGA readthrough (luciferase): peer review file; for Correction of the UGA nonsense mutation (luciferase activity), in words: Fig. 1c; for EC50: authors' reply in peer review file, removed from final text
Source text: To identify the compounds responsible for this activity, a semi-preparative HPLC fractionation protocol was used. […] (Fig. 1b). DMSO and G418 were used, respectively, as a negative and a positive control.
The value of each luciferase measurement is presented in the Source Data File. All data shown in c, d are representative of two independent experiments. Source data are provided as a Source Data file.
HeLa cells were transfected with the FLuc-int-UGA construct using lipofectamine 3000 (Life technologies) according to the manufacturer’s recommendations. […] Steadylite plus luciferase substrate (Perkin Elmer, Waltham, MA, USA) was then added to each well before measuring the visible light from each well for 10 s with a Tristar luminometer (Berthold technologies, Versailles, France). The plate was read twice and the reported values are averages of the two reads.

[2] = system: p53 readthrough protein in Calu-6 cells; assay: p53 function: luciferase under promoter with two p53-responsive elements, Calu-6; type: cell-based, human
Source text: The three leftmost lanes show twofold serial dilutions of untreated HeLa cell extract. The molecular weight is indicated to the left of each gel. b Schematic representation of the construct used to measure the function of p53. The construct carries a cDNA encoding the firefly luciferase under a promoter having two p53-responsive elements (underlined). […] The level of p21 mRNA is related to the amount of functional p53 protein synthesized in the cell. The results presented in panels b and c are representative of at least two independent experiments., p-values (p) were calculated using Student’s t-test. Source data are provided as a Source Data file.
Although DAP clearly promoted the synthesis of full-length proteins from UGA-nonsense-mutation-containing mRNAs, it was necessary to ascertain that the readthrough protein was functional. […] The first involved measuring the transcriptional activity of the p53 readthrough protein in Calu-6 cells transfected with an expression vector carrying the cDNA encoding firefly luciferase under the control of a promoter with two p53-responsive elements (Fig. 2b)[33]. Upon DMSO treatment, only basal luciferase activity was detected, reflecting promoter leakage (Fig. 2c). […] The second assay used the p53 target gene p21 (ref. [44]).

## Nc1nc(N)c2[nH]cnc2n1 [DAP, 2,6-diaminopurine]
[1]; 0.39µM, Exp. 1
  Luciferase activity, UGA PTC, dose response: 1186.95
[1]; 0.39µM, Exp. 2
  Luciferase activity, UGA PTC, dose response: 737.25
[1]; 0.39µM, average
  Luciferase activity, UGA PTC, dose response: 962±318 and 962.101
[1]; 0.78µM, Exp. 1
  Luciferase activity, UGA PTC, dose response: 1503.98
[1]; 0.78µM, Exp. 2
  Luciferase activity, UGA PTC, dose response: 977.5
[1]; 0.78µM, average
  Luciferase activity, UGA PTC, dose response: 1241±372 and 1240.74
[1]; 1.56µM, Exp. 1
  Luciferase activity, UGA PTC, dose response: 2085.73
[1]; 1.56µM, Exp. 2
  Luciferase activity, UGA PTC, dose response: 1374.25
[1]; 1.56µM, average
  Luciferase activity, UGA PTC, dose response: 1730±503 and 1729.99
[1]; 6.25µM, Exp. 1
  Luciferase activity, UGA PTC, dose response: 7245.46
[1]; 6.25µM, Exp. 2
  Luciferase activity, UGA PTC, dose response: 4897.5
[1]; 6.25µM, average
  Luciferase activity, UGA PTC, dose response: 6071±1660 and 6071.48
[1]; 25µM, Exp. 1
  Luciferase activity, UGA PTC, dose response: 48084
[1]; 25µM, Exp. 2
  Luciferase activity, UGA PTC, dose response: 33252.2
[1]; 25µM, average
  Luciferase activity, UGA PTC, dose response: 40668±10487 and 40668.1
[1]; 100µM, Exp. 1
  Luciferase activity, UGA PTC, dose response: 351175
[1]; 100µM, Exp. 2
  Luciferase activity, UGA PTC, dose response: 246890
[1]; 100µM, average
  Luciferase activity, UGA PTC, dose response: 299032±73740 and 299033
[1]; 300µM, Exp. 1
  Luciferase activity, UGA PTC, dose response: 257964
[1]; 300µM, Exp. 2
  Luciferase activity, UGA PTC, dose response: 190894
[1]; 300µM, average
  Luciferase activity, UGA PTC, dose response: 224429±47425 and 224429
[1]; 600µM, Exp. 1
  Luciferase activity, UGA PTC, dose response: 134395
[1]; 600µM, Exp. 2
  Luciferase activity, UGA PTC, dose response: 97365.8
[1]; 600µM, average
  Luciferase activity, UGA PTC, dose response: 115880±26184 and 115881
[1]; DAP 3.75µM, average of 2 experiments
  Luciferase activity, UGA PTC: 20599.75±1015 and 20599.8
[1]; DAP 3.75µM, experiment 1
  Luciferase activity, UGA PTC: 19882
[1]; DAP 3.75µM, experiment 2
  Luciferase activity, UGA PTC: 21317.5
[1]; DAP 37.5µM, average of 2 experiments
  Luciferase activity, UGA PTC: 35939.75±1176 and 35939.8
[1]; DAP 37.5µM, experiment 1
  Luciferase activity, UGA PTC: 36771
[1]; DAP 37.5µM, experiment 2
  Luciferase activity, UGA PTC: 35108.5
[1]
  Concentration of maximal efficacy, UGA readthrough (luciferase): 100 µM
  Correction of the UGA nonsense mutation (luciferase activity), in words: exclusive correction of the UGA nonsense mutation
[1]; Homo sapiens
  EC50: ~50 µM
[2]
  Luciferase activity under p53-responsive promoter, in words: significantly increased
[2]; 6.25µM, average
  Luciferase activity, p53-responsive promoter construct (DMSO = 1): 1.454
[2]; 6.25µM, experiment 1
  Luciferase activity, p53-responsive promoter construct (DMSO = 1): 1.606
[2]; 6.25µM, experiment 2
  Luciferase activity, p53-responsive promoter construct (DMSO = 1): 1.415
[2]; 6.25µM, experiment 3
  Luciferase activity, p53-responsive promoter construct (DMSO = 1): 1.341
[2]; 25µM, average
  Luciferase activity, p53-responsive promoter construct (DMSO = 1): 2.545
[2]; 25µM, experiment 1
  Luciferase activity, p53-responsive promoter construct (DMSO = 1): 2.235
[2]; 25µM, experiment 2
  Luciferase activity, p53-responsive promoter construct (DMSO = 1): 2.893
[2]; 25µM, experiment 3
  Luciferase activity, p53-responsive promoter construct (DMSO = 1): 2.507

## CN[C@@H]1[C@@H](O)[C@@H](O[C@@H]2[C@@H](O)[C@H](O[C@H]3O[C@H]([C@@H](C)O)[C@@H](O)[C@H](O)[C@H]3N)[C@@H](N)C[C@H]2N)OC[C@]1(C)O [G418, reference compound]
[1]; 0.39µM, Exp. 1
  Luciferase activity, UGA PTC, dose response: 701.361
[1]; 0.39µM, Exp. 2
  Luciferase activity, UGA PTC, dose response: 678.75
[1]; 0.39µM, average
  Luciferase activity, UGA PTC, dose response: 690±16 and 690.055
[1]; 0.78µM, Exp. 1
  Luciferase activity, UGA PTC, dose response: 783.19
[1]; 0.78µM, Exp. 2
  Luciferase activity, UGA PTC, dose response: 761.5
[1]; 0.78µM, average
  Luciferase activity, UGA PTC, dose response: 772±15 and 772.345
[1]; 1.56µM, Exp. 1
  Luciferase activity, UGA PTC, dose response: 853.418
[1]; 1.56µM, Exp. 2
  Luciferase activity, UGA PTC, dose response: 829
[1]; 1.56µM, average
  Luciferase activity, UGA PTC, dose response: 841±17 and 841.209
[1]; 6.25µM, Exp. 1
  Luciferase activity, UGA PTC, dose response: 1017.65
[1]; 6.25µM, Exp. 2
  Luciferase activity, UGA PTC, dose response: 990.5
[1]; 6.25µM, average
  Luciferase activity, UGA PTC, dose response: 1004±19 and 1004.07
[1]; 25µM, Exp. 1
  Luciferase activity, UGA PTC, dose response: 1013.6
[1]; 25µM, Exp. 2
  Luciferase activity, UGA PTC, dose response: 986
[1]; 25µM, average
  Luciferase activity, UGA PTC, dose response: 1000±19 and 999.799
[1]; 100µM, Exp. 1
  Luciferase activity, UGA PTC, dose response: 1134.07
[1]; 100µM, Exp. 2
  Luciferase activity, UGA PTC, dose response: 1106
[1]; 100µM, average
  Luciferase activity, UGA PTC, dose response: 1120±20 and 1120.03
[1]; 300µM, Exp. 1
  Luciferase activity, UGA PTC, dose response: 1723.63
[1]; 300µM, Exp. 2
  Luciferase activity, UGA PTC, dose response: 1679.5
[1]; 300 µM, UGA
  Increase in luciferase activity relative to background level: about twice the background level
[1]; 300µM, average
  Luciferase activity, UGA PTC, dose response: 1702±31 and 1701.56
[1]; 600µM, Exp. 1
  Luciferase activity, UGA PTC, dose response: 1231.27
[1]; 600µM, Exp. 2
  Luciferase activity, UGA PTC, dose response: 1202
[1]; 600µM, average
  Luciferase activity, UGA PTC, dose response: 1217±21 and 1216.63
[1]
  EC50: ~100 µM
  Concentration of maximal efficacy, UGA readthrough (luciferase): 300 µM
  Correction of the UGA nonsense mutation (luciferase activity), in words: corrected the UGA more efficiently than the UAG nonsense mutation
[1]; G418 1mg/ml, average of 2 experiments
  Luciferase activity, UGA PTC: 8466.25±478 and 8466.25
[1]; G418 1mg/ml, experiment 1
  Luciferase activity, UGA PTC: 8804.5
[1]; G418 1mg/ml, experiment 2
  Luciferase activity, UGA PTC: 8128
[2]
  Luciferase activity under p53-responsive promoter, in words: remained at its background level
[2]; 25µM, average
  Luciferase activity, p53-responsive promoter construct (DMSO = 1): 1.04
[2]; 25µM, experiment 1
  Luciferase activity, p53-responsive promoter construct (DMSO = 1): 1.048
[2]; 25µM, experiment 2
  Luciferase activity, p53-responsive promoter construct (DMSO = 1): 0.7766
[2]; 25µM, experiment 3
  Luciferase activity, p53-responsive promoter construct (DMSO = 1): 1.295
[2]; 600µM, average
  Luciferase activity, p53-responsive promoter construct (DMSO = 1): 1.017
[2]; 600µM, experiment 1
  Luciferase activity, p53-responsive promoter construct (DMSO = 1): 1.299
[2]; 600µM, experiment 2
  Luciferase activity, p53-responsive promoter construct (DMSO = 1): 0.6289
[2]; 600µM, experiment 3
  Luciferase activity, p53-responsive promoter construct (DMSO = 1): 1.121
